Experimental data: patent publication US20240002491A1, “METHODS FOR SELECTING PATIENTS FOR TREATMENT WITH AN NGF ANTAGONIST” (Regeneron Pharmaceuticals, Inc., priority 2022, published 2024)

Test system: adults with moderate-to-severe chronic pain associated with osteoarthritis (OA) of the knee or hip
Assay: FACT OA1 (NCT03161093, R475-OA-1611) Phase 3 trial, WOMAC pain and physical function
Type: in vivo, human
Conditions: FACT OA1, Week 16; fasinumab 1 mg Q4W, naproxen 2 × 500 mg/day
Description: NCT02683239 (R475-PN-1523, or “FACT LTS”), NCT03161093 (R475-OA-1611, or “FACT OA1”), and NCT03304379 (R475-OA-1688, or “FACT OA2”) each were Phase 3 trials evaluating fasinumab in adults with moderate-to-severe chronic pain associated with osteoarthritis (OA) of the knee or hip. All three of these trials enrolled patients with OA of the knee or hip who had inadequate pain relief with acetaminophen and were intolerant to or had inadequate pain relief with opioids, or were unwilling or unable to take opioids. Complete inclusion and exclusion criteria for the trials are described at clinicaltrials.gov/ct2/show/NCT03161093, clinicaltrials.gov/ct2/show/NCT03304379, and clinicaltrials.gov/ct2/show/NCT02683239.
FACT OA1 and FACT OA2 assessed the efficacy of fasinumab in comparison to nonsteroidal anti-inflammatory drugs (NSAIDs; naproxen, diclofenac, or celecoxib) for treatment of OA. FACT OA1 includes results from a total of 1,801 patients randomized to one of four treatment arms: fasinumab 1 mg SC once every 8 weeks (Q8W) (n=304), fasinumab 1 mg SC once every 4 weeks (Q4W) (n=639), naproxen 500 mg twice daily (n=644), or placebo (n=214). In FACT OA2, patients were randomized into one of six treatment groups: fasinumab 1 mg SC once every 4 weeks (Q4W), fasinumab 3 mg SC once every 4 weeks (Q4W), fasinumab 6 mg SC once every 8 weeks (Q8W), celecoxib 200 mg once daily, diclofenac 75 mg twice daily, or placebo. While the FACT OA2 trial was still ongoing, enrollment into the fasinumab 3 mg Q4W and 6 mg Q8W groups was stopped for safety considerations; patients enrolled in those dose regimens discontinued study drug and entered the post-treatment follow-up period.
Fasinumab patients in both trials also reported improvements in their pain and physical function (WOMAC score) compared to those treated with the highest-approved prescription doses of NSAIDS.

COc1ccc2cc([C@H](C)C(=O)O)ccc2c1 [Naproxen, naproxen, reference compound]
WOMAC pain, change from baseline: −33%
WOMAC pain, change from baseline (score, in brackets): (−2.13)
WOMAC physical function, change from baseline: −31%
WOMAC physical function, change from baseline (score, in brackets): (−1.98)
